Laboratory results reported in publication PMC9841521, “Subnanomolar Affinity and Selective Antagonism at α7 Nicotinic Receptor by Combined Modifications of 2-Triethylammonium Ethyl Ether of 4-Stilbenol (MG624)” (Journal of Medicinal Chemistry, 2022).
“Also recorded” adds a separate entry of the source. Read-outs that look alike come from different tables or passages of the source.

How the values were obtained:
human α3β4-nAChR subtype = target: T1, human α3β4-nAChR subtype (Homo sapiens, UniProt P30926+P32297); test: Competition binding with [3H]epibatidine, membranes of SH-EP1 cells stably transfected with α3 and β4; conditions: for Ki: human α3β4 expressed in SH-EP1 cells, confidence interval in parentheses, read-out: α3β4-nAChR [3H]-Epi Ki
T1 construct: expressed in transfected cells

human α4β2-nAChR subtype = target: T2, human α4β2-nAChR subtype (Homo sapiens, UniProt P17787+P43681); test: Competition binding with [3H]epibatidine, membranes of HEK 293 cells stably transfected with α4 and β2; conditions: human α4β2 expressed in HEK 293 cells; confidence interval in parentheses; read-out: α4β2-nAChR [3H]-Epi Ki
T2 construct: expressed in transfected cells; gift of Dr. Jon Lindstrom

human α7-nAChR [1] = target: T3, human α7-nAChR (Homo sapiens, UniProt P36544); test: Two-electrode voltage clamp, antagonism of currents activated by 1 mM ACh, test compound coapplied, X. laevis oocytes; assay type: cell-based; conditions: for inhibition of ACh-induced function at the α7-nAChR: maximal inhibition
human α9α10-nAChR [2] = target: T4, human α9α10-nAChR (Homo sapiens, UniProt Q9GZZ6+Q9UGM1); test: Two-electrode voltage clamp, antagonism of currents activated by 1 mM ACh, test compound coapplied, X. laevis oocytes (α9:α10 cRNA 9:1); assay type: cell-based; conditions: coapplied with 1 mM ACh; for inhibition of ACh-induced α9α10-nAChR function (in words) / IC50: up to 100 μM; for IC50: 95% confidence interval in parentheses; for inhibition of ACh-induced function at the α9α10-nAChR: maximal inhibition
T4 construct: expressed in transfected cells; host or cells: Xenopus laevis oocytes (cRNA injection, α9:α10 9:1)

human α9α10-nAChR [3] = target: T4, human α9α10-nAChR; test: Two-electrode voltage clamp, compound applied alone at 100 μM: intrinsic activity, rebound current, residual ACh response; assay type: cell-based; conditions: for partial agonism of α9α10-nAChRs, efficacy (AUC) / partial agonism of α9α10-nAChRs, efficacy (peak current): 100 μM pulse, alone, vs 1 mM ACh, range over the named compounds; for recovery of rebound current at α9α10-nAChR (in words): 1 min after test compound; for recovery of rebound current at α9α10-nAChR (in words) / residual ACh-induced current at α9α10-nAChR (in words): Figure 4; for residual ACh-induced current at α9α10-nAChR (in words): final ACh control 1 min after test compound
human α7-nAChR [4] = target: T3, human α7-nAChR; test: as above; assay type: cell-based; set-up: expressed in transfected cells; host or cells: SH-SY5Y neuroblastoma cells (transient); conditions: 100 μM pulse, vs 1 mM ACh, range over the named compounds
[5] = coapplied with 1 mM ACh, up to 100 μM
[6] = coapplied with 1 mM ACh, up to 100 μM, 95% confidence interval in parentheses, NA = not inhibited even at 100 μM, read-out: α7 IC50 (AUC)
[7] = coapplied with 1 mM ACh, up to 100 μM, 95% confidence interval in parentheses, NA = not inhibited even at 100 μM, read-out: α7 IC50 (peak current)

Structure (SMILES) | Ki (human α3β4-nAChR subtype) [µM] | Ki (human α4β2-nAChR subtype) [µM] | IC50 (human α9α10-nAChR [2]) [µM] | also measured
CC[N+](CC)(CC)CCOc1ccccc1 [Compound 3, N,N,N-Triethyl-2-phenoxyethan-1-aminium Iodide] | 10 | 19 |  | 
C=Cc1ccc(OCC[N+](CC)(CC)CC)cc1 [Compound 4, N,N,N-Triethyl-2-(4-vinylphenoxy)ethan-1-aminium Iodide] | 1.07 | 24 |  | 
CC[N+](CC)(CC)CCOc1ccc(-c2ccccc2)cc1 [Compound 5, 2-([1,1′-Biphenyl]-4-yloxy)-N,N,N-triethylethan-1-aminium Iodide] | 0.44 | 11.8 |  | 
CC[N+](CC)(CC)CCOc1ccc(CCc2ccccc2)cc1.[I-] [Compound 6, N,N,N-Triethyl-2-(4-phenethylphenoxy)ethan-1-aminium Iodide] | 1.25 |  | 9.12 | inhibition of ACh-induced α7-nAChR function (in words) (human α7-nAChR [1]; [5]): no inhibition; also recorded: no effect; also recorded: devoid of α7-nAChR antagonism; alpha7 nAChR IC50 (AUC) (human α7-nAChR [1]; supplementary CSV): not active; alpha7 nAChR IC50 (peak current) (human α7-nAChR [1]; supplementary CSV): not active; inhibition of ACh-induced α9α10-nAChR function (in words) (human α9α10-nAChR [2]): essentially full inhibition; partial agonism of α9α10-nAChRs, efficacy (AUC) (human α9α10-nAChR [3]): 0.2–3 % of ACh control; partial agonism of α9α10-nAChRs, efficacy (peak current) (human α9α10-nAChR [3]): 5–55 % of ACh control; block of subsequent ACh-induced function at α9α10-nAChRs (in words) (human α9α10-nAChR [3]; final 1 mM ACh 1 min after 100 μM compound, Figure 3B): significantly block
CC[N+](CC)(CC)CCOc1ccc(C#Cc2ccccc2)cc1 [Compound 7, N,N,N-Triethyl-2-(4-(phenylethynyl)phenoxy)ethan-1-aminium Iodide] | 0.912 | 19.4 |  | 
CC[N+](CC)(CC)CCOc1ccc(-c2ccc3ccccc3c2)cc1 [Compound 8, N,N,N-Triethyl-2-(4-(naphthalen-2-yl)phenoxy)ethan-1-aminium Iodide] | 0.458 | 1.8 |  | 
CC[N+](CC)(CC)CCOc1ccc(-c2cccc3ccccc23)cc1.[I-] [Compound 9, N,N,N-Triethyl-2-(4-(naphthalen-1-yl)phenoxy)ethan-1-aminium Iodide] |  |  |  | higher affinity for the α3β4- than for the α7-nAChR (human α3β4-nAChR subtype; binding affinities): ≈ 30 fold
CC[N+](CC)(CC)CCOc1ccc(/C=C/c2cccc3ccccc23)cc1 [Compound 10, (E)-N,N,N-Triethyl-2-(4-(2-(naphthalen-1-yl)vinyl)phenoxy)ethan-1-aminium Iodide] | 0.501 |  |  | 
CC[N+](CC)(CC)CCOc1ccc(/C=C/c2ccc3ccccc3c2)cc1 [Compound 11, (E)-N,N,N-Triethyl-2-(4-(2-(naphthalen-2-yl)vinyl)phenoxy)ethan-1-aminium Iodide] | 0.425 |  |  | 
CC[N+](CC)(CC)CCOc1ccc(/C=C/c2cccc(C(F)(F)F)c2)cc1 [Compound 15, (E)-N,N,N-Triethyl-2-(4-(3-(trifluoromethyl)styryl)phenoxy)ethan-1-aminium Iodide] | 1.41 | 21.8 |  | 
CC[N+](CC)(CC)CCOc1ccc(/C=C/c2ccc(C(F)(F)F)cc2)cc1 [Compound 16, (E)-N,N,N-Triethyl-2-(4-(4-(trifluoromethyl)styryl)phenoxy)ethan-1-aminium Iodide] | 0.874 | 10.4 |  | 
CC[N+](CC)(CC)CCOc1ccc(/C=C/c2ccc(OC)cc2)cc1 [Compound 18, (E)-N,N,N-Triethyl-2-(4-(4-methoxystyryl)phenoxy)ethan-1-aminium Iodide] | 0.187 |  |  | 
CC[N+](CC)(CC)CCOc1ccc(/C=C/c2cccc(O)c2)cc1 [Compound 19, (E)-N,N,N-Triethyl-2-(4-(3-hydroxystyryl)phenoxy)ethan-1-aminium Iodide] | 0.998 | 10.1 |  | 
CC[N+](CC)(CC)CCOc1ccc(/C=C/c2ccc(O)cc2)cc1 [Compound 20, (E)-N,N,N-Triethyl-2-(4-(4-hydroxystyryl)phenoxy)ethan-1-aminium Iodide] | 0.873 | 9.82 |  | 
CC[N+](CC)(CC)CCOc1ccc(/C=C/c2cc(OC)cc(OC)c2)cc1 [Compound 21] | 0.676 | 1.2 |  | 
CC[N+](CC)(CC)CCOc1ccc(/C=C/c2cc(O)cc(O)c2)cc1 [Compound 22, (E)-2-(4-(3,5-Dihydroxystyryl)phenoxy)-N,N,N-triethylethan-1-aminium Iodide] | 0.793 | 7.24 |  | 
CC[N+](CC)(CC)CCOc1ccc(OCc2ccccc2)cc1 [Compound 23, 2-(4-(Benzyloxy)phenoxy)-N,N,N-triethylethan-1-aminium Iodide] | 4.7 |  |  | 
CC[N+](CC)(CC)CCOc1ccc(NC(=O)c2ccccc2)cc1 [Compound 25, 2-(4-Benzamidophenoxy)-N,N,N-triethylethan-1-aminium Iodide] | 1.07 | 4.5 | 115 | IC50 (human α7-nAChR [1]; [6]): 26.9 µM; IC50 (human α7-nAChR [1]; [7]): 25.7 µM
CC[N+](CC)(CC)CCOc1ccc(C(=O)Nc2ccccc2)cc1 [Compound 26, N,N,N-Triethyl-2-(4-(phenylcarbamoyl)phenoxy)ethan-1-aminium Iodide] | 0.113 | 23 | 75.9 | IC50 (human α7-nAChR [1]; [6]): > 100 µM; IC50 (human α7-nAChR [1]; [7]): > 100 µM; IC50 (human α7-nAChR [1]; supplementary CSV, read-out: alpha7 nAChR IC50 (AUC)): > 100 µM; IC50 (human α7-nAChR [1]; supplementary CSV, read-out: alpha7 nAChR IC50 (peak current)): > 100 µM
CC[N+](CC)(CC)CCOc1ccc(/N=N/c2ccccc2)cc1.[I-] [Compound 27, (E)-N,N,N-Triethyl-2-(4-(phenyldiazenyl)phenoxy)ethan-1-aminium Iodide] |  |  | 15.8 | inhibition of ACh-induced α7-nAChR function (in words) (human α7-nAChR [1]; [5]): complete or nearly complete inhibition; IC50 (human α7-nAChR [1]; [6]): 5.54 µM; IC50 (human α7-nAChR [1]; [7]): 11.2 µM; inhibition of ACh-induced α9α10-nAChR function (in words) (human α9α10-nAChR [2]): complete or nearly complete inhibition
CC[N+](CC)(CC)CCOc1ccc(-c2nc3ccccc3o2)cc1.[I-] [Compound 28, 2-(4-(Benzo[d]oxazol-2-yl)phenoxy)-N,N,N-triethylethan-1-aminium Iodide] | 0.653 |  | 72.4 | IC50 (human α7-nAChR [1]; [6]): 2.25 µM; IC50 (human α7-nAChR [1]; [7]): 1.78 µM; partial agonism of α9α10-nAChRs, efficacy (AUC) (human α9α10-nAChR [3]): 0.2–3 % of ACh control; partial agonism of α9α10-nAChRs, efficacy (peak current) (human α9α10-nAChR [3]): 5–55 % of ACh control; recovery of rebound current at α9α10-nAChR (in words) (human α9α10-nAChR [3]): almost complete recovery; residual ACh-induced current at α9α10-nAChR (in words) (human α9α10-nAChR [3]): highest residual ACh-induced currents; partial agonism at α7-nAChR, efficacy compared to ACh control (peak current) (human α7-nAChR [4]): 15–50%
CC[N+](CC)(CC)CCOc1ccc(-c2nc3ccccc3[nH]2)cc1 [Compound 29, 2-(4-(1H-Benzo[d]imidazol-2-yl)phenoxy)-N,N,N-triethylethan-1-aminium Iodide] | 0.345 |  | 202 | IC50 (human α7-nAChR [1]; [6]): 197 µM; IC50 (human α7-nAChR [1]; [7]): 182 µM
CC[N+](CC)(CC)CCOc1ccc(-c2ccc3cc[nH]c3c2)cc1.[I-] [Compound 30, 2-(4-(1H-Indol-6-yl)phenoxy)-N,N,N-triethylethan-1-aminium Iodide] | 0.174 |  | 6.46 | inhibition of ACh-induced α7-nAChR function (in words) (human α7-nAChR [1]; [5]): complete or nearly complete inhibition; IC50 (human α7-nAChR [1]; [6]): 1.95 µM; IC50 (human α7-nAChR [1]; [7]): 1.91 µM; inhibition of ACh-induced function at the α7-nAChR (human α7-nAChR [1]; coapplied with 1 mM ACh): 100%; inhibition of ACh-induced α9α10-nAChR function (in words) (human α9α10-nAChR [2]): complete or nearly complete inhibition; inhibition of ACh-induced function at the α9α10-nAChR (human α9α10-nAChR [2]): 100%
CC[N+](CC)(CC)CCOc1ccc(-c2ccc3[nH]ccc3c2)cc1.[I-] [Compound 31, 2-(4-(1H-Indol-5-yl)phenoxy)-N,N,N-triethylethan-1-aminium Iodide] | 0.177 |  | 8.13 | inhibition of ACh-induced α7-nAChR function (in words) (human α7-nAChR [1]; [5]): complete or nearly complete inhibition; IC50 (human α7-nAChR [1]; [6]): 1.86 µM; IC50 (human α7-nAChR [1]; [7]): 2.01 µM; inhibition of ACh-induced function at the α7-nAChR (human α7-nAChR [1]; coapplied with 1 mM ACh): 100%; inhibition of ACh-induced α9α10-nAChR function (in words) (human α9α10-nAChR [2]): complete or nearly complete inhibition; inhibition of ACh-induced function at the α9α10-nAChR (human α9α10-nAChR [2]): 100%
CC[N+](CC)(CC)CCOc1ccc(-c2ccc3occc3c2)cc1 [Compound 32, 2-(4-(Benzofuran-5-yl)phenoxy)-N,N,N-triethylethan-1-aminium Iodide] | 0.343 |  |  | 
C[N+]1(C)CC[C@@H](Oc2ccc(-c3ccc4[nH]ccc4c3)cc2)C1.[I-] [Compound 33, (R)-3-(4-(1H-Indol-5-yl)phenoxy)-1,1-dimethylpyrrolidin-1-ium Iodide] | 0.365 | 5.1 | 15.9 | inhibition of ACh-induced α9α10-nAChR function (in words) (human α9α10-nAChR [2]): complete or nearly complete inhibition; inhibition of ACh-induced function at the α9α10-nAChR (human α9α10-nAChR [2]): 100%; partial agonism of α9α10-nAChRs, efficacy (AUC) (human α9α10-nAChR [3]): 0.2–3 % of ACh control; partial agonism of α9α10-nAChRs, efficacy (peak current) (human α9α10-nAChR [3]): 5–55 % of ACh control; recovery of rebound current at α9α10-nAChR (in words) (human α9α10-nAChR [3]): almost complete recovery; residual ACh-induced current at α9α10-nAChR (in words) (human α9α10-nAChR [3]): highest residual ACh-induced currents
